This note sets out measurements from patent publication US8173682B2, “Substituted pyridones as inhibitors of poly(ADP-ribose) polymerase (PARP)” (Aventis Pharmaceuticals Inc., priority 2004, dated 2012).

Where a name gives a salt, the structure may show the parent alone.

One may read the IC50 as the concentration at which inhibition is half-maximal.

This assay deals with T1, recombinant human PARP (PARP1) (Homo sapiens, UniProt P09874).
T1 construct: Full length human PARP (PARP1) is assembled from PCR fragments; His6 tag with TEV site, from the pFastBac-HTb vector (own knowledge of the vector); made in house; host or cells: insect cells, baculovirus (Bac-to-Bac, Gibco-BRL)
T1 sequence (P09874 whole entry, the tested form may be a part): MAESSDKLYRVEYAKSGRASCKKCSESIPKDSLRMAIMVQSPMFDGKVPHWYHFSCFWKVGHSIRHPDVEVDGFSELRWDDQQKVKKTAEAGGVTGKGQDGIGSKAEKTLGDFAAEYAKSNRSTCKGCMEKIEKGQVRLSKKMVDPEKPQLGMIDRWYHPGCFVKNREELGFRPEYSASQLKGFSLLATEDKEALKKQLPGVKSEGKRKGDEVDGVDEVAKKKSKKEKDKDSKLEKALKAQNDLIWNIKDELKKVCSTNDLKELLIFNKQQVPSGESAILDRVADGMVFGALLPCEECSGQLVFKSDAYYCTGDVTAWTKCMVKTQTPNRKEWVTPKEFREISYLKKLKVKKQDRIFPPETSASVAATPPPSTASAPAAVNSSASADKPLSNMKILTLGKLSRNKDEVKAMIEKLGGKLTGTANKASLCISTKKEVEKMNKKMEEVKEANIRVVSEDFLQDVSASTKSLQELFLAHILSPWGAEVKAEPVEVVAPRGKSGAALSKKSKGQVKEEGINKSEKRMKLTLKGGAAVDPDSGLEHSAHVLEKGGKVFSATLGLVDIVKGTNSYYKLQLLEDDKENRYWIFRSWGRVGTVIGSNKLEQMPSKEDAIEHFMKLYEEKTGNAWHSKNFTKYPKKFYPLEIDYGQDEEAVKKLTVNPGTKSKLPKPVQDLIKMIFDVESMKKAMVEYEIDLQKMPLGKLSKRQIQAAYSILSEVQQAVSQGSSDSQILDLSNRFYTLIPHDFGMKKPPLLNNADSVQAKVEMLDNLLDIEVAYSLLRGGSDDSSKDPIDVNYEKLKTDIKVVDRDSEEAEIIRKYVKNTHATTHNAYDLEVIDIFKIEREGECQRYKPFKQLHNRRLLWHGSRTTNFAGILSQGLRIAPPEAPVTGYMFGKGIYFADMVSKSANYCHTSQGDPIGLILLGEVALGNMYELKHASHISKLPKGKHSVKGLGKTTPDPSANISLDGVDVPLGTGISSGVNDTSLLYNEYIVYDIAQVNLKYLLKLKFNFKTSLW
Nature of the assay: PARP enzyme assay, Method A (radioactivity or 'ELISA' enzyme assay with partially purified enzyme). In kind it is biochemical. As to conditions: recombinant human PARP preparation, radioactive or ELISA enzyme assay. From the text: Two different methods are employed in determining the activity of the compounds of this invention in inhibiting the activity of PARP enzyme, designated as Method A and Method B respectively as set forth below.
Method A: Cloning and Expression, and Partial Purification of Recombinant Human PARP:
Full length human PARP (PARP1) is assembled from PCR fragments of a clone from a human brain cDNA library and two Incyte clones. The PARP gene (3046 bp) is sub-cloned into pFastBac-HTb vector to give PARP-pFastBac-HTb and the sequence of this clone is verified. PARP-pFastBac-HTb is expressed to obtain protein using the Bac-to-Bac expression protocol from Gibco-BRL. The recombinant virus generated is used to scale up the material for purification.
Cell pellets from cell broth of cells expressing PARP are treated with a cocktail of protease inhibitors and lysed by 4 freeze-thaw cycles. The material is suspended in 10 mM HEPES/0.1M NaCl/pH 7.2, stirred, and then centrifuged. A 40%-70% ammonium sulfate cut of protein pellet is obtained from the supernatant. The pellet is solubilized in 10 mM HEPES/pH 7.2 and centrifuged. The supernatant buffer is exchanged to 10 mM HEPES/pH 7.2/0.1M NaCl/25% glycerol by dialysis or with a desalting column. The enzyme preparation is stored at −20° C. until use.
The compounds of this invention are then tested with this enzyme preparation using either the radioactive enzyme assay or by the “ELISA” enzyme assay as set forth below.
Radioactivity Enzyme Assay:
Incorporation of radioactivity from labeled NAD into acid-precipitated protein is measured. The reaction mixture (volume 100 μL or 50 μL, in a test-tube or 96-well plate) contained 100 μg/mL calf thymus DNA (sonicated), 100 μg/mL histones, 100 mM Tris (pH 8.0), 1.0 mM DTT, 10 mM MgCl2, NAD (200 μM, 0.65 microcurie/mL), and varying amounts of enzyme. The reaction was incubated for 10 min at 37° C. or at room temperature for 60 min. The reaction was stopped and protein precipitated by addition of ice-cold trichloroacetic acid (TCA; 10% or 20% aqueous w/v). After brief storage in ice or at 4° C. for 2 hrs, the reaction mixture is filtered under vacuum through a glass fiber filter (2.5 cm disc, or 96-well filter plate). After washing with TCA and ethanol, the filter is dried and counted for tritium CPM after addition of scintillation fluid.
Incorporation of biotin-NAD into histone coated on plate is measured. A 96-well protein-binding EIA plate is coated with histone and blocked with bovine serum albumin. The reaction mixture (50 μL) contained DNA, buffer, enzyme, (test compound), and 250 μM of NAD and 5 μL of biotin-NAD (Trevigen). After reaction at room temperature the wells are washed and treated with Extravidin (Sigma). After incubation and washing color is developed with the peroxidase substrate TMB (Sigma). The TMB reaction is quenched with 2M sulfuric acid and the absorbance at 450 nm is read.
On the technique in general: An ELISA detects its analyte on a solid surface through an enzyme-linked reagent.

For the compound `CCc1cc(-c2ccc(S(=O)(=O)NCc3ccc(N(C)C)nc3)s2)c(C)[nH]c1=O` [Example 78, 5-(5-Ethyl-2-methyl-6-oxo-1,6-dihydropyridin-3-yl)thiophene-2-sulfonic acid [(6-dimethylaminopyridin-3-yl)methyl]amide hydrochloride], the IC50 amounted to 0.2 µM.
`CCc1cc(-c2ccc(S(=O)(=O)N3CCC(n4ccnc4)CC3)s2)c(C)[nH]c1=O` [Example 79, 3-Ethyl-5-[5-(4-imidazol-1-yl)piperidine-1-sulfonyl)thiophen-2-yl]-6-methyl-1H-pyridin-2-one hydrochloride]: the IC50 is 0.45 µM.
The figure for `CCc1cc(-c2ccc(S(=O)(=O)NCc3nccn3C)s2)c(C)[nH]c1=O` [Example 80, 5-[5-Ethyl-2-methyl-6-oxo-1,6-dihydropyridin-3-yl]thiophene-2-sulfonic acid (1-methylimidazol-2-yl)methyl]amide hydrochloride] is 0.43 µM.
The figure for `CCc1cc(-c2ccc(S(=O)(=O)N(C)C3CCN(C)C3)s2)c(C)[nH]c1=O` (centres unmarked) [Example 81, 5-[5-Ethyl-2-methyl-6-oxo-1,6-dihydropyridin-3-yl]thiophene-2-sulfonic acid methyl (1-methylpyrrolidin-3-yl)amide hydrochloride] is 0.54 µM; for `CCc1cc(-c2ccc(S(=O)(=O)NC3CCN(Cc4ccncc4)CC3)s2)c(C)[nH]c1=O` [Example 82, 5-[5-Ethyl-2-methyl-6-oxo-1,6-dihydropyridin-3-yl]thiophene-2-sulfonic acid [1-(pyridin-4-yl)methyl(piperidin-4-yl)]amide dihydrochloride] it is 0.48 µM; for `CCc1cc(-c2ccc(S(=O)(=O)NC3CCN(Cc4ncc[nH]4)CC3)s2)c(C)[nH]c1=O` [Example 83, 5-[5-Ethyl-2-methyl-6-oxo-1,6-dihydropyridin-3-yl]thiophene-2-sulfonic acid (1-imidazol-2-yl)methyl(piperidin-4-yl)]amide dihydrochloride] it is 2.8 µM.
The figure for `CCc1cc(-c2ccc(S(=O)(=O)NCCCCc3cccnc3)s2)c(C)[nH]c1=O` [Example 84, 5-[5-Ethyl-2-methyl-6-oxo-1,6-dihydropyridin-3-yl]thiophene-2-sulfonic acid 4-(pyridin-3-ylbutyl)]amide hydrochloride] is 1.6 µM; for `CCc1cc(-c2ccc(S(=O)(=O)N3CCOCC3)s2)c(C)[nH]c1=O` [Example 86, 3-Ethyl-6-methyl-5-[5-(morpholine-4-sulfonyl)thiophen-2-yl]-1H-pyridin-2-one] it is 4.5 µM; for `CCc1cc(-c2ccc(S(=O)(=O)N3CCC(O)CC3)s2)c(C)[nH]c1=O` [Example 87, 3-Ethyl-5-[5-(4-hydroxypiperidine-1-sulfonyl)thiophen-2-yl]-6-methyl-1H-pyridin-2-one] it is 5.3 µM.
`CCOC(=O)N1CCN(S(=O)(=O)c2ccc(-c3cc(CC)c(=O)[nH]c3C)s2)CC1` [Example 89, 4-[5-(5-Ethyl-2-methyl-6-oxo-1,6-dihydropyridin-3-yl)thiophene-2-sulfonyl]piperazine-1-carboxylic acid ethyl ester]: the IC50 stood at 10.8 µM.
With `CCc1cc(-c2ccc(S(=O)(=O)N3CCCC(CO)C3)s2)c(C)[nH]c1=O` (centres unmarked) [Example 90, 3-Ethyl-5-[5-(3-hydroxymethylpiperidine-1-sulfonyl)thiophen-2-yl]-6-methyl-1H-pyridin-2-one], the IC50 amounted to 0.68 µM.
For the compound `CCc1cc(-c2ccc(S(=O)(=O)N3CCN(CCO)CC3)s2)c(C)[nH]c1=O` [Example 91, 3-Ethyl-5-{5-[4-(2-hydroxyethyl)piperazine-1-sulfonyl]thiophen-2-yl}-6-methyl-1H-pyridin-2-one hydrochloride], the IC50 was 2.9 µM.
Then `CCc1cc(-c2ccc(S(=O)(=O)N3CCN(C)CC3)s2)c(C)[nH]c1=O` [Example 92, 3-Ethyl-6-methyl-5-[5-(4-methylpiperazine-1-sulfonyl)thiophen-2-yl]-1H-pyridin-2-one], with 1.3 µM; and `CCc1cc(-c2ccc(S(=O)(=O)N3CCNCC3)s2)c(C)[nH]c1=O` [Example 94, 3-Ethyl-6-methyl-5-[5-(piperazine-1-sulfonyl)thiophen-2-yl]-1H-pyridin-2-one hydrochloride], with 1.4 µM.
Consider `CCc1cc(-c2ccc(S(=O)(=O)NCCCN(CC)CC)s2)c(C)[nH]c1=O` [Example 96, 5-(5-Ethyl-2-methyl-6-oxo-1,6-dihydropyridin-3-yl)-thiophene-2-sulfonic acid (3-diethylaminopropyl)amide hydrochloride], for which the half-inhibitory concentration (IC50) was 0.72 µM.
Then `CCc1cc(-c2ccc(S(=O)(=O)NCc3ccco3)s2)c(C)[nH]c1=O` [Example 97, 5-(5-Ethyl-2-methyl-6-oxo-1,6-dihydropyridin-3-yl)-thiophene-2-sulfonic acid (furan-2-ylmethyl)amide], with 0.18 µM; and `CCc1cc(-c2ccc(S(=O)(=O)NCCOc3ccccc3)s2)c(C)[nH]c1=O` [Example 98, 5-(5-Ethyl-2-methyl-6-oxo-1,6-dihydropyridin-3-yl)-thiophene-2-sulfonic acid (2-phenoxyethyl)amide], with 0.41 µM; and `CCc1cc(-c2ccc(S(=O)(=O)N3CCN(CCOCCO)CC3)s2)c(C)[nH]c1=O` [Example 99, 3-Ethyl-5-(5-{4-[2-(2-hydroxy-ethoxy)-ethyl]-piperazine-1-sulfonyl}-thiophen-2-yl)-6-methyl-1H-pyridin-2-one hydrochloride], with 1.3 µM.
Then `CCc1cc(-c2ccc(S(=O)(=O)N3CCN(Cc4ccccc4)CC3)s2)c(C)[nH]c1=O` [Example 100, 5-[5-(4-Benzylpiperazine-1-sulfonyl)thiophen-2-yl]-3-ethyl-6-methyl-1H-pyridin-2-one hydrochloride], with 2.2 µM.
Then `CCc1cc(-c2ccc(S(=O)(=O)NCC3CCCN3CC)s2)c(C)[nH]c1=O` (centres unmarked) [Example 102, 5-(5-Ethyl-2-methyl-6-oxo-1,6-dihydropyridin-3-yl)-thiophene-2-sulfonic acid (1-ethyl-pyrrolidin-2-ylmethyl)amide hydrochloride], with 0.49 µM.
Regarding `CCc1cc(-c2ccc(S(=O)(=O)NCc3ccc4c(c3)OCO4)s2)c(C)[nH]c1=O` [Example 103, 5-(5-Ethyl-2-methyl-6-oxo-1,6-dihydropyridin-3-yl)-thiophene-2-sulfonic acid (1,3-benzodioxol-5-ylmethyl)amide], the IC50 was found to be 0.14 µM.
The figure for `CCc1cc(-c2ccc(S(=O)(=O)N3CCN(Cc4ccc5c(c4)OCO5)CC3)s2)c(C)[nH]c1=O` [Example 104, 5-[5-(4-1,3-Benzodioxol-5-ylmethylpiperazine-1-sulfonyl)-thiophen-2-yl]-3-ethyl-6-methyl-1H-pyridin-2-one hydrochloride] is 2.5 µM; for `CCc1cc(-c2ccc(S(=O)(=O)N3CCC[C@H]3CNc3ccccc3)s2)c(C)[nH]c1=O` [Example 105, 3-Ethyl-6-methyl-5-[5-((S)-2-phenylaminomethylpyrrolidine-1-sulfonyl)-thiophen-2-yl]-1H-pyridin-2-one hydrochloride] it is 3.1 µM.
The figure for `CCc1cc(-c2ccc(S(=O)(=O)N(C)Cc3ccco3)s2)c(C)[nH]c1=O` [Example 106, 5-(5-Ethyl-2-methyl-6-oxo-1,6-dihydro-pyridin-3-yl)thiophene-2-sulfonic acid furan-2-yl-methyl-methylamide] is 0.43 µM.
The figure for `CCc1cc(-c2ccc(S(=O)(=O)N3CCC(C(=O)c4ccccc4)CC3)s2)c(C)[nH]c1=O` [Example 108, 5-[5-(4-Benzoylpiperidine-1-sulfonyl)thiophen-2-yl]-3-ethyl-6-methyl-1H-pyridin-2-one] is 1 µM.
For the compound `CCc1cc(-c2ccc(S(N)(=O)=O)s2)c(C)[nH]c1=O` [Example 111, 5-(5-ethyl-2-methyl-6-oxo-1,6-dihydro-pyridin-3-yl)-thiophene-2-sulfonic acid amide], the IC50 is 0.21 µM.
